Assays:
[1] = Subacute study of intravenously administered CX-3543 in dogs (safety and tolerance); assay type: in vivo
Method: This study determines the safety and tolerance of CX-3543 at three dose levels administered intravenously once daily to beagle dogs for five consecutive days. Safety parameters were monitored through observation, clinical pathology, and microscopic histopathology assessments. Selected animals also underwent blood sample collection for pharmacokinetic/toxicokinetic evaluation. All animals were also assessed with ECG evaluations to detect heart rhythm and/or conduction abnormalities.
The study was conducted using three (3) test article and one (1) control article group. The control article was the solution (5% dextrose in water) used to dilute the test article prior to administration and was administered at the same volume as the high dose. The test article dosage levels for this study were approximately 12, 3.8, and 1.2 mg/kg. Test and control articles were administered once by intravenous (IV) infusion over approximately a one hour period on five consecutive days. Blood samples for test article blood level analysis was taken as follows (i.e., pk/tk sampling): approximately 1 mL of blood was taken from three male and three female dogs in the low dose group at approximately 20 minutes and 40 minutes from the start of the infusion, and then at the end of infusion (Time 0) and at 5, 10, 15, and 30 minutes, and 1, 2, 4, 8, 12, and 24 hours from the end of the infusion after the first and fifth doses. Also, prior to and immediately after Dose 1 and after Dose 5 for all animals, and for recovery animals prior to necropsy, approximately 5-10 second ECG tracings in a lead II configuration were obtained. Animals were terminated one (1) or 15 days after the last dose. […]
Clinical Pathology: After overnight fasting and prior to the first dose (baseline; all animals) and then prior to each necropsy, blood samples are taken for hematology and clinical chemistry. For hematology assays, blood collected at baseline and prior to necropsy (fasted) are analyzed for erythrocyte count, hematocrit, MCH, leukocyte count, differential WC, MCHC, hemoglobin, MCV, platelet count, PT, and APTT. […]

[2] = Metabolic stability and metabolite profiling in hepatocytes; assay type: in vitro ADME, human
Method: Metabolic Stability Assay and Metabolite Profiling. A human hepatocyte assay to profile metabolites was carried out using commercially available kits and following standard procedures. The metabolic stability of CX-3543 with human hepatocytes was evaluated following incubation at 0, 30, 60, and 120 minutes at 1 and 20 μM. Consumption of the parent compound and the appearance of metabolites were carefully monitored, and mass spectrometer product ion scans were conducted on potential metabolite peaks to define the metabolite fragmentation pattern.
The protocol is designed to determine the stability of a new chemical entity in the presence of hepatocytes (human, rat, dog, monkey) in in vitro incubations. The test article will be incubated with hepatocytes and suitable media for various times at 37° C. The reaction mixtures will be extracted and analyzed by LC/MS/MS for the parent compound and anticipated metabolites. If applicable, a half-life will be calculated for the consumption of the test article. Metabolism controls will be run for comparison of the half-life values with that obtained for the test article. The metabolism controls are tolbutamide, desipramine and naloxone, and these compounds have defined pharmacokinetics corresponding to low, moderate and high in vivo clearance values, respectively.
Metabolic Stability Study. Generally, solutions of the test compounds are prepared along with a cocktail solution of metabolism controls that are intended to provide a reference for enzyme activity. The reactions are initiated by combining these pre-warmed solutions with hepatocyte suspensions and with a media control solution. Control zero samples are taken from these reactions immediately after initiation. Additional samples are taken at appropriate time points. Each sample is immediately placed in a terminating solution (acidified acetonitrile containing internal standard) to stop the reaction. Hepatocyte blank suspensions and test compound standard solutions are prepared.
Samples and standards for the test compound as well as appropriate blanks are subjected to a custom sample preparation procedure and analyzed for the parent and/or metabolite form of the test compound using high-performance liquid chromatography coupled with tandem mass spectrometry. Samples and standards for the metabolism controls are subjected to the analytical method described herein. Where Krebs Henseleit buffer is added, the buffer is bubbled with 5% CO2 in air at room temperature for 5-10 minutes before adding BSA to a final concentration of 0.2% w/v. The volume of terminating solution and the method of sample preparation will be determined for the test article during method development.
Test Article/Media Solution. A solution of the test article will be prepared by adding an appropriate volume of the stock solution to 0.2% BSA in Krebs Henseleit buffer equilibrated with 5% CO2 in air. The final concentration will be 20 μM and the final assay concentration at initiation of the reactions will be […].
Metabolism Controls/Media Solution. A solution of tolbutamide, desipramine and naloxone will be prepared by adding an appropriate volume of each 10 mM stock solution to 0.2% BSA in Krebs Henseleit buffer equilibrated with 5% CO2 in air. […]
Hepatocyte Suspension Solution. […] During the final step of the procedure, the viability of the cells will be determined using the method of trypan blue exclusion. […]

[3] = biological target: topoisomerase I (Homo sapiens, UniProt P11387); assay: Topoisomerase I inhibition; assay type: biochemical
Sequence of topoisomerase I (P11387 whole entry): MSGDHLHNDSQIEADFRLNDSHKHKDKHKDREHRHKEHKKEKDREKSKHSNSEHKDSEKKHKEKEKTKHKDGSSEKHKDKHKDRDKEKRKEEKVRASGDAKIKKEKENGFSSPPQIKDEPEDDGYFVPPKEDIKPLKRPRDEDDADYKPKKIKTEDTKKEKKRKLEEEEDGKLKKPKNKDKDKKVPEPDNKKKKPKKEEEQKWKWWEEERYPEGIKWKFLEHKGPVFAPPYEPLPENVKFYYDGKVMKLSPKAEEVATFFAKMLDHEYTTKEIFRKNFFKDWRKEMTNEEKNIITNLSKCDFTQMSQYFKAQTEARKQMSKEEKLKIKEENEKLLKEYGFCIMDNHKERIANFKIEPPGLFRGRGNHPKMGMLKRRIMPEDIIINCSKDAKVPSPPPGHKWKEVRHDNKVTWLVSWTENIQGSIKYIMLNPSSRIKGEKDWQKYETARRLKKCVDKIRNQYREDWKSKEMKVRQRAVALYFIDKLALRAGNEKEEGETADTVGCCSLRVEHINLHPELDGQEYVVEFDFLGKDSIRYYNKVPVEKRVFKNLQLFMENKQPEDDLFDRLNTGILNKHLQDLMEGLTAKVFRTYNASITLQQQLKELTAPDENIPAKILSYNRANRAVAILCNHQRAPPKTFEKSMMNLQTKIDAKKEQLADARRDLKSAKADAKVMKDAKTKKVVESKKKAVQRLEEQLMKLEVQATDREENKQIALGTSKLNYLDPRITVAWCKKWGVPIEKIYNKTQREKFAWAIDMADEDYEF

With `CN1CCCC1CCNC(=O)c1cn2c3c(c(N4CCC(c5cnccn5)C4)c(F)cc3c1=O)Oc1cc3ccccc3cc1-2` (stereo not drawn) [CX-3543] the mortality ([1]; dog, in vivo) was “no mortality”, the tolerance ([1]; dogs, five consecutive daily doses at 12, 3.8 or 1.2 mg/kg, IV one-hour infusion, except injection-site inflammation and necrosis) was “toxicologically well tolerated” and the ECG monitoring ([1]; dogs, pre and post doses 1 and 5) was “No abnormalities were detected”. For the same compound, the “metabolites in the hepatocyte incubation medium” value ([2]; 0 vs 120 min) was “no single major metabolite is present”, the consumption by hepatocytes ([2]; 1 uM) was “very slowly” and the original drug remaining ([2]; at or below 12 uM) was “about 60%”. For the same compound, the consumption by hepatocytes ([2]; concentrations from about 12-20 uM) was “moderately to quickly”, the Km ([2]; human, human hepatocytes (suspension), read-out: apparent Km of consumption by hepatocytes) was greater than 20 µM and the “inhibitory activity against topoisomerase I” value [3] was “not to be an inhibitor or poison”.

From patent publication US7507727B2, “Substituted quinobenzoxazine analogs and methods of using thereof” (Cylene Pharmaceuticals, Inc., priority 2003, dated 2009)
